# Measurements as given in ChEMBL document CHEMBL4339201, “A survey of core replacements in indole-based HIV-1 attachment inhibitors” (Bioorg Med Chem Lett, 2019).
# Columns and labels:
# [1] = Cytotoxicity against human MT2 cells assessed as decrease in cell viability; type: cell-based
# [2] = system: Human immunodeficiency virus 1; assay: Antiviral activity against ENV pseudotyped HIV1 […] infected in human HeLa67 cells expressing CD4/CCR5[…] after 72 hrs by luciferase reporter gene assay; type: functional, organism-based; conditions: Human immunodeficiency virus 1, HeLa67, 72 h
EC50 [2],Compound,CC50 [1]
56 nM,COc1cc(C(=O)C(=O)N2CCN(C(=O)c3ccccc3)C[C@H]2C)nc2ccccc12,96 µM
655 nM,C[C@@H]1CN(C(=O)c2ccccc2)CCN1C(=O)C(=O)c1n[nH]c2ccccc12,> 300 µM
4.4 nM,C[C@H]1CN(C(=O)c2ccccc2)CCN1C(=O)C(=O)c1ccc2ccccc2n1,166 µM
4.8 nM,COc1ccc2cc(C(=O)C(=O)N3CCN(C(=O)c4ccccc4)CC3C)[nH]c2c1 (stereo not given),27 µM
3610 nM,O=C(C(=O)N1CCN(C(=O)c2ccccc2)CC1)c1ccc2nccnc2c1,> 300 µM
0.2 nM,COc1ccc2nc(C(=O)C(=O)N3CCN(C(=O)c4ccccc4)CC3C)ccc2c1 (stereo not given),184 µM
1.2 nM,CC1CN(C(=O)c2ccccc2)CCN1C(=O)C(=O)c1ccc2ccccc2n1 (stereo not given),266 µM
182 nM,O=C(C(=O)N1CCN(C(=O)c2ccccc2)CC1)c1cc2ccccc2cn1,> 300 µM
2840 nM,O=C(C(=O)N1CCN(C(=O)c2ccccc2)CC1)c1cc2ccccc2s1,9 µM
0.03 nM,C[C@@H]1CN(C(=O)c2ccccc2)CCN1C(=O)C(=O)c1ccc2cc(-c3nccs3)ccc2c1,–
> 5000 nM,CC1CN(C(=O)c2ccccc2)CCN1C(=O)C(=O)c1cnc2ccccn12 (stereo not given),> 300 µM
135 nM,O=C(C(=O)N1CCN(C(=O)c2ccccc2)CC1)c1ccc2ccccc2c1,94 µM
17 nM,C[C@@H]1CN(C(=O)c2ccccc2)CCN1C(=O)C(=O)c1c[nH]c2c1ccc1cccnc12,45 µM
108 nM,O=C(C(=O)N1CCN(C(=O)c2ccccc2)CC1)c1cnc2ccccc2n1,> 300 µM
> 5000 nM,O=C(C(=O)N1CCN(C(=O)c2ccccc2)CC1)c1ccc2cccnc2n1,> 300 µM
0.16 nM,C[C@@H]1CN(C(=O)c2ccccc2)CCN1C(=O)C(=O)c1ccc2cc(C(=N)NO)ccc2c1,234 µM
561 nM,O=C(C(=O)N1CCN(C(=O)c2ccccc2)CC1)c1cc2ccccc2[nH]1,> 300 µM
355 nM,O=C(C(=O)N1CCN(C(=O)c2ccccc2)CC1)c1cccc2ccccc12,> 300 µM
798 nM,C[C@@H]1CN(C(=O)c2ccccc2)CCN1C(=O)C(=O)c1nc2ccccc2[nH]1,> 300 µM
219 nM,C[C@@H]1CN(C(=O)c2ccccc2)CCN1C(=O)C(=O)c1cc2ccccc2[nH]1,–

EC50 [2],Compound,CC50 [1]
0.4 nM,CC1CN(C(=O)c2ccccc2)CCN1C(=O)C(=O)c1ccc2c(O)cccc2n1 (stereo not given),195 µM
2460 nM,O=C(C(=O)N1CCN(C(=O)c2ccccc2)CC1)c1nc2ccccc2[nH]1,> 300 µM
> 5000 nM,COc1ccc2[nH]c(C(=O)C(=O)N3CCN(C(=O)c4ccccc4)CC3C)cc2c1 (stereo not given),33 µM
734 nM,CC1CN(C(=O)c2ccccc2)CCN1C(=O)C(=O)c1nsc2ccccc12 (stereo not given),75 µM
2.9 nM,COc1cccc2nc(C(=O)C(=O)N3CCN(C(=O)c4ccccc4)CC3C)ccc12 (stereo not given),200 µM
> 5000 nM,COc1cc(OC)c2cc(C(=O)C(=O)N3CCN(C(=O)c4ccccc4)CC3C)[nH]c2c1 (stereo not given),68 µM
> 5000 nM,CC1CN(C(=O)c2ccccc2)CCN1C(=O)C(=O)c1cnc2ncccn12 (stereo not given),> 300 µM
13 nM,O=C(C(=O)N1CCN(C(=O)c2ccccc2)CC1)c1ccc2ccccc2n1,> 300 µM
11.9 nM,C[C@@H]1CN(C(=O)c2ccccc2)CCN1C(=O)C(=O)c1ccc2cc(C(N)=O)ccc2c1,189 µM
> 5000 nM,O=C(C(=O)N1CCN(C(=O)c2ccccc2)CC1)c1cnn2ccccc12,> 300 µM
2.4 nM,C[C@@H]1CN(C(=O)c2ccccc2)CCN1C(=O)C(=O)c1ccc2ccccc2c1,171 µM
255 nM,O=C(C(=O)N1CCN(C(=O)c2ccccc2)CC1)c1ccc2[nH]ccc2c1,> 250 µM
1.7 nM,CC1CN(C(=O)c2ccccc2)CCN1C(=O)C(=O)c1ccc2cc(Br)ccc2n1 (stereo not given),134 µM
1.3 nM,C[C@@H]1CN(C(=O)c2ccccc2)CCN1C(=O)C(=O)c1ccc2cc(Br)ccc2c1,301 µM
0.7 nM,C[C@@H]1CN(C(=O)c2ccccc2)CCN1C(=O)C(=O)c1ccc2ccccc2n1,198 µM
2860 nM,O=C(C(=O)N1CCN(C(=O)c2ccccc2)CC1)c1ccc2cccnc2c1,> 300 µM
0.2 nM,CC1CN(C(=O)c2ccccc2)CCN1C(=O)C(=O)c1ccc2cc(O)ccc2n1 (stereo not given),210 µM
11 nM,C[C@@H]1CN(C(=O)c2ccccc2)CCN1C(=O)C(=O)c1cn2c(n1)sc1ccccc12,> 300 µM
27 nM,C[C@@H]1CN(C(=O)c2ccccc2)CCN1C(=O)C(=O)c1ccc2cc(C(=O)O)ccc2c1,> 300 µM
52 nM,O=C(C(=O)N1CCN(C(=O)c2ccccc2)CC1)c1cn2c(n1)sc1ccccc12,> 300 µM

EC50 [2],Compound,CC50 [1]
5.9 nM,CC1CN(C(=O)c2ccccc2)CCN1C(=O)C(=O)c1ccc2cc(F)ccc2n1 (stereo not given),258 µM
4.6 nM,C[C@@H]1CN(C(=O)c2ccccc2)CCN1C(=O)C(=O)c1cnc2ccccc2n1,> 300 µM
1010 nM,CC1CN(C(=O)c2ccccc2)CCN1C(=O)C(=O)c1cccc2cc[nH]c12 (stereo not given),212 µM
407 nM,C[C@@H]1CN(C(=O)c2ccccc2)CCN1C(=O)C(=O)c1cc2cccn2cn1,> 300 µM
> 5000 nM,O=C(C(=O)N1CCN(C(=O)c2ccccc2)CC1)c1nc2ccccc2o1,> 300 µM
12 nM,C[C@@H]1CN(C(=O)c2ccccc2)CCN1C(=O)C(=O)c1nc2ccccc2n1C,> 300 µM
2.6 nM,COc1ccc2nc(C(=O)C(=O)N3CCN(C(=O)c4ccccc4)C[C@H]3C)sc2c1,151 µM
0.1 nM,COc1ccc2cc(C(=O)C(=O)N3CCN(C(=O)c4ccccc4)C[C@H]3C)ccc2c1,41 µM
2320 nM,C[C@@H]1CN(C(=O)c2ccccc2)CCN1C(=O)C(=O)c1cc2sccc2[nH]1,106 µM
3060 nM,C[C@@H]1CN(C(=O)c2ccccc2)CCN1C(=O)C(=O)c1ccc2[nH]nnc2c1,> 300 µM
764 nM,O=C(C(=O)N1CCN(C(=O)c2ccccc2)CC1)c1csc2ccccc12,141 µM
137 nM,O=C(C(=O)N1CCN(C(=O)c2ccccc2)CC1)c1ccc2cnccc2n1,> 300 µM
26 nM,C[C@H]1CN(C(=O)c2ccccc2)CCN1C(=O)C(=O)c1cnc2ccccc2n1,114 µM
30 nM,C[C@@H]1CN(C(=O)c2ccccc2)CCN1C(=O)C(=O)c1ccc2cc(C#N)ccc2c1,102 µM
4 nM,C[C@@H]1CN(C(=O)c2ccccc2)CCN1C(=O)C(=O)c1c[nH]c2ccccc12,200 µM
34 nM,C[C@@H]1CN(C(=O)c2ccccc2)CCN1C(=O)C(=O)c1nc2ccccc2s1,> 230 µM
–,O=C(C(=O)N1CCN(C(=O)c2ccccc2)CC1)c1c[nH]c2ccccc12,339 µM
358 nM,C[C@@H]1CN(C(=O)c2ccccc2)CCN1C(=O)C(=O)c1cc2sccc2s1,> 300 µM
86 nM,C[C@@H]1CN(C(=O)c2ccccc2)CCN1C(=O)C(=O)c1ccc2scnc2c1,> 300 µM
